Data published in PubChem BioAssay AID248 (DTP/NCI, 2004).
Several values for one entry are separate records, joined by “and”; a condition that tells them apart may be missing. Equal entries are not always repeated. Inconclusive results and toxic doses are left out. No stated cut-off is given here; in the data, active means T/C of 150% or more; inactive means T/C below 125%.

Test system: L1210 leukemia ip in BDF1 mice, survival T/C
Assay: NCI In Vivo Anticancer Drug Screen. Data for tumor model L1210 Leukemia (intraperitoneal) in B6D2F1 (BDF1) mice
Conditions: endpoint: mean survival time, higher = longer survival
Summary of the method: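 Mice bearing the transplanted tumor received compound or vehicle. Survival of the treated group was divided by that of the vehicle-treated control group to give the ratio.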

[1] = dose: 100.0 mg/kg/injection, schedule: Q04DX003 (ip), vehicle: Klucel (hydroxypropylcellulose) (HPC)
[2] = dose: 200.0 mg/kg/injection, schedule: Q04DX003 (ip), vehicle: Klucel (hydroxypropylcellulose) (HPC)
[3] = dose: 400.0 mg/kg/injection, schedule: Q04DX003 (ip), vehicle: Klucel (hydroxypropylcellulose) (HPC)
[4] = dose: 100.0 mg/kg/injection, schedule: Q01DX009 (ip), vehicle: Klucel (hydroxypropylcellulose) (HPC)
[5] = dose: 100.0 mg/kg/injection, schedule: Q04DX002 (ip), vehicle: Klucel (hydroxypropylcellulose) (HPC)
[6] = dose: 200.0 mg/kg/injection, schedule: Q01DX009 (ip), vehicle: Klucel (hydroxypropylcellulose) (HPC)
[7] = dose: 200.0 mg/kg/injection, schedule: Q04DX002 (ip), vehicle: Klucel (hydroxypropylcellulose) (HPC)
[8] = dose: 400.0 mg/kg/injection, schedule: Q01DX009 (ip), vehicle: Klucel (hydroxypropylcellulose) (HPC)
[9] = dose: 400.0 mg/kg/injection, schedule: Q04DX002 (ip), vehicle: Klucel (hydroxypropylcellulose) (HPC)
[10] = dose: 100.0 mg/kg/injection, schedule: Q01DX001 (ip), vehicle: saline
[11] = dose: 200.0 mg/kg/injection, schedule: Q01DX001 (ip), vehicle: saline
[12] = dose: 400.0 mg/kg/injection, schedule: Q01DX001 (ip), vehicle: saline
[13] = dose: 100.0 mg/kg/injection, schedule: Q04DX003 (ip), vehicle: saline with Tween-80
[14] = dose: 200.0 mg/kg/injection, schedule: Q04DX003 (ip), vehicle: saline with Tween-80

Measured: T/C

CCCCCCCCCCCCCCCCCCSc1ccc2ccccc2c1
inactive: [1] 105 % of control | [2] 94 % of control | [3] 91 % of control

CCOC(=O)CSC(=S)N(C)C
inactive: dose: 100.0 mg/kg/injection, schedule: Q01DX001 (ip), vehicle: Klucel (hydroxypropylcellulose) (HPC) 102 % of control | [4] 95 % of control and 96 % of control and 111 % of control | [5] 102 % of control and 106 % of control | [1] 101 % of control | dose: 200.0 mg/kg/injection, schedule: Q01DX001 (ip), vehicle: Klucel (hydroxypropylcellulose) (HPC) 102 % of control | [6] 97 % of control and 104 % of control and 89 % of control | [7] 102 % of control and 103 % of control | [2] 93 % of control | dose: 400.0 mg/kg/injection, schedule: Q01DX001 (ip), vehicle: Klucel (hydroxypropylcellulose) (HPC) 96 % of control | [8] 89 % of control | [9] 103 % of control and 104 % of control | [3] 93 % of control

O=S1c2ccccc2Oc2ccccc21
inactive: [5] 108 % of control | [7] 108 % of control | [9] 108 % of control

CC(C)(C)c1cc(OCC2CO2)c(C(C)(C)C)cc1OCC1CO1 (stereo not drawn)
inactive: [10] 101 % of control | [11] 101 % of control | [12] 92 % of control

CCOC(=O)C(C(=O)OCC)C1c2ccccc2-c2ccccc21
inactive: [1] 102 % of control | [2] 96 % of control | [3] 100 % of control

CN=C(NN)NN
inactive: dose: 2.5 mg/kg/injection, schedule: Q01DX009 (ip), vehicle: saline 106 % of control | dose: 5.0 mg/kg/injection, schedule: Q01DX009 (ip), vehicle: saline 95 % of control | dose: 5.0 mg/kg/injection, schedule: Q04DX003 (ip), vehicle: saline 95 % of control | dose: 10.0 mg/kg/injection, schedule: Q01DX001 (ip), vehicle: saline 102 % of control | dose: 10.0 mg/kg/injection, schedule: Q01DX009 (ip), vehicle: saline 97 % of control | dose: 10.0 mg/kg/injection, schedule: Q04DX003 (ip), vehicle: saline 103 % of control | dose: 20.0 mg/kg/injection, schedule: Q01DX001 (ip), vehicle: saline 103 % of control | dose: 20.0 mg/kg/injection, schedule: Q04DX003 (ip), vehicle: saline 90 % of control

CCCCCCCC/C=C\CCCCCCCC(=O)NCCCOCCOCC
inactive: dose: 75.0 mg/kg/injection, schedule: Q04DX003 (ip), vehicle: saline 94 % of control | dose: 150.0 mg/kg/injection, schedule: Q04DX003 (ip), vehicle: saline 96 % of control | dose: 300.0 mg/kg/injection, schedule: Q04DX003 (ip), vehicle: saline 96 % of control

CC(=O)[C@H]1CC[C@H]2[C@@H]3CCC4=CC(=O)[C@H](C)C[C@]4(C)[C@@]3(F)C(=O)C[C@]12C
inactive: dose: 15.0 mg/kg/injection, schedule: Q01DX Z (sc), vehicle: steriod suspending solution 98 % of control | dose: 30.0 mg/kg/injection, schedule: Q01DX Z (sc), vehicle: steriod suspending solution 96 % of control | dose: 60.0 mg/kg/injection, schedule: Q01DX Z (sc), vehicle: steriod suspending solution 101 % of control and 113 % of control | dose: 100.0 mg/kg/injection, schedule: Q01DX009 (sc), vehicle: steriod suspending solution 116 % of control | dose: 100.0 mg/kg/injection, schedule: Q04DX003 (sc), vehicle: steriod suspending solution 98 % of control | dose: 120.0 mg/kg/injection, schedule: Q01DX Z (sc), vehicle: steriod suspending solution 105 % of control | dose: 200.0 mg/kg/injection, schedule: Q01DX009 (sc), vehicle: steriod suspending solution 110 % of control | dose: 200.0 mg/kg/injection, schedule: Q04DX003 (sc), vehicle: steriod suspending solution 98 % of control | dose: 240.0 mg/kg/injection, schedule: Q01DX Z (sc), vehicle: steriod suspending solution 103 % of control | dose: 400.0 mg/kg/injection, schedule: Q01DX009 (sc), vehicle: steriod suspending solution 111 % of control | dose: 400.0 mg/kg/injection, schedule: Q04DX003 (sc), vehicle: steriod suspending solution 98 % of control

Cc1ccc(NC(=O)c2ccccc2)cc1
inactive: [5] 95 % of control | [7] 95 % of control

Nc1ncnc2nc(C3OC(CO)C(O)C3O)[nH]c12 (stereo not drawn)
inactive: dose: 100.0 mg/kg/injection, schedule: Q01DX005 (ip), vehicle: saline 96 % of control | dose: 200.0 mg/kg/injection, schedule: Q01DX005 (ip), vehicle: saline 96 % of control

O=C(N/N=C\c1ccc(Cl)cc1Cl)C1CC1
inactive: dose: 15.0 mg/kg/injection, schedule: Q01DX Z (ip), vehicle: carboxymethylcellulose (CMC) 97 % of control | dose: 30.0 mg/kg/injection, schedule: Q01DX Z (ip), vehicle: carboxymethylcellulose (CMC) 92 % of control | dose: 30.0 mg/kg/injection, schedule: Q01DX Z (oral), vehicle: carboxymethylcellulose (CMC) 98 % of control | dose: 60.0 mg/kg/injection, schedule: Q01DX Z (ip), vehicle: carboxymethylcellulose (CMC) 95 % of control | dose: 60.0 mg/kg/injection, schedule: Q01DX Z (oral), vehicle: carboxymethylcellulose (CMC) 100 % of control | dose: 120.0 mg/kg/injection, schedule: Q01DX Z (oral), vehicle: carboxymethylcellulose (CMC) 121 % of control

NC(=S)c1cccnc1
inactive: dose: 50.0 mg/kg/injection, schedule: Q01DX003 (ip), vehicle: Klucel (hydroxypropylcellulose) (HPC) 94 % of control | dose: 100.0 mg/kg/injection, schedule: Q01DX003 (ip), vehicle: Klucel (hydroxypropylcellulose) (HPC) 94 % of control | [1] 109 % of control | dose: 200.0 mg/kg/injection, schedule: Q01DX003 (ip), vehicle: Klucel (hydroxypropylcellulose) (HPC) 97 % of control | [2] 111 % of control | [3] 109 % of control

Cc1cc2ncn(CC(=O)NN)c2cc1C
inactive: dose: 100.0 mg/kg/injection, schedule: Q01DX009 (ip), vehicle: saline with Tween-80 86 % of control | [13] 92 % of control | [14] 95 % of control | dose: 400.0 mg/kg/injection, schedule: Q04DX003 (ip), vehicle: saline with Tween-80 92 % of control

ClC1=C(Cl)C2(Cl)CC1(Cl)C1OC12 (stereo not drawn)
inactive: dose: 12.5 mg/kg/injection, schedule: Q01DX009 (ip), vehicle: saline with Tween-80 104 % of control | dose: 25.0 mg/kg/injection, schedule: Q01DX009 (ip), vehicle: saline with Tween-80 104 % of control | dose: 50.0 mg/kg/injection, schedule: Q01DX009 (ip), vehicle: saline with Tween-80 96 % of control

CN(C)/C=N/c1nccs1
inactive: [10] 104 % of control | [11] 107 % of control | [12] 107 % of control

N#CSc1ccc(S(N)(=O)=O)cc1
inactive: dose: 6.25 mg/kg/injection, schedule: Q01DX009 (ip), vehicle: Klucel (hydroxypropylcellulose) (HPC) 94 % of control | dose: 12.5 mg/kg/injection, schedule: Q01DX009 (ip), vehicle: Klucel (hydroxypropylcellulose) (HPC) 92 % of control | dose: 12.5 mg/kg/injection, schedule: Q04DX003 (ip), vehicle: Klucel (hydroxypropylcellulose) (HPC) 100 % of control | dose: 25.0 mg/kg/injection, schedule: Q01DX009 (ip), vehicle: Klucel (hydroxypropylcellulose) (HPC) 106 % of control | dose: 25.0 mg/kg/injection, schedule: Q04DX003 (ip), vehicle: Klucel (hydroxypropylcellulose) (HPC) 105 % of control

CC1=CC(=O)N(CCl)C1=O
inactive: [13] 102 % of control | [14] 94 % of control

CC1(C)N([O-])[N+](=O)C1(C)C
inactive: dose: 100.0 mg/kg/injection, schedule: Q01DX001 (ip), vehicle: saline with Tween-80 97 % of control | dose: 200.0 mg/kg/injection, schedule: Q01DX001 (ip), vehicle: saline with Tween-80 101 % of control | dose: 400.0 mg/kg/injection, schedule: Q01DX001 (ip), vehicle: saline with Tween-80 101 % of control

O=C(O)c1ccc(NC(=O)c2cccc(F)c2)cc1
inactive: [4] 100 % of control | [6] 108 % of control | [8] 101 % of control

ClCCN(CCCl)c1ccc(C=Nc2ccc(/C=C\c3ccnc4ccccc34)cc2)cc1
inactive: dose: 100.0 mg/kg/injection, schedule: Q01DX001 (ip), vehicle: other 96 % of control | dose: 200.0 mg/kg/injection, schedule: Q01DX001 (ip), vehicle: other 94 % of control | dose: 400.0 mg/kg/injection, schedule: Q01DX001 (ip), vehicle: other 94 % of control
